{"source": "patent US9375496B2", "about": "“Halogenated compounds for cancer imaging and treatment and methods for their use” (The University of British Columbia, priority 2013, dated 2016)", "key": {"[1]": {"target": "T1, recombinant LBD of estrogen receptor (ER) (Homo sapiens, UniProt P03372)", "T1 sequence (P03372 311-547 limits assumed)": "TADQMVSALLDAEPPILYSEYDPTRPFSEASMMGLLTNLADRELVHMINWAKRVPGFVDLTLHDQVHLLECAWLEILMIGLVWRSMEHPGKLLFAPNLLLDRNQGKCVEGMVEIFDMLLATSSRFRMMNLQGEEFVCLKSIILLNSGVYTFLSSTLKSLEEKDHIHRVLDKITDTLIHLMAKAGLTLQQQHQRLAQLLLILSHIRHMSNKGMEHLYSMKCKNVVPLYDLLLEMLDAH", "experiment": "Competitive ligand-binding assay (fluorescent polarization), recombinant ER LBD", "conditions": "1 nM fluorescently labeled ligand, 5 h incubation, serial dilution", "description": "(§1) Competitive ligand-binding assays to detect the displacement of fluorescently labeled ligand from recombinant LBDs (ligand binding domains) of AR, PR, GR and estrogen receptor (ER) by R1881, MDV3100, Z (also referred to as EPI-002 or EPI) or 8d (also referred to as iodinated EPI) were performed. FIGS. 14A-14E display competitive ligand-binding curves to indicate whether R1881, Z, antiandrogens (enzalutamide, hydroxyflutamide, bicalutamide) or 8d can displace 1 nM fluorescently labeled cognant ligand from recombinant LBDs of steroid hormone receptors by using fluorescent polarization (mP). Serial dilution was performed for each test compound. Mixtures were incubated for 5 h before measurement of fluorescent polarization."}, "recombinant LBD of AR": {"target": "T2, recombinant LBD of AR (Homo sapiens, UniProt P10275)", "T2 sequence (P10275 669-900 limits assumed)": "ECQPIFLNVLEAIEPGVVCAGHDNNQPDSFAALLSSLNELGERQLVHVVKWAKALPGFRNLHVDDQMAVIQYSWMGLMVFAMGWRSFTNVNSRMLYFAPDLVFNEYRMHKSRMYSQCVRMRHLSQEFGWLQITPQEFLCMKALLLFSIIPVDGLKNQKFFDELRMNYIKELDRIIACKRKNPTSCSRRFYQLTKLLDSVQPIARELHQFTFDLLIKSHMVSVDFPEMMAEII", "experiment": "Competitive ligand-binding assay (fluorescent polarization), recombinant AR LBD", "conditions": "1 nM fluorescently labeled ligand, 5 h incubation, serial dilution", "description": "as §1"}, "AR": {"target": "T3, AR (Homo sapiens, UniProt P10275, T878A)", "T3 construct": "LNCaP cells with endogenous AR; endogenous in cells; host or cells: LNCaP", "T3 sequence (P10275 1-920 T878A)": "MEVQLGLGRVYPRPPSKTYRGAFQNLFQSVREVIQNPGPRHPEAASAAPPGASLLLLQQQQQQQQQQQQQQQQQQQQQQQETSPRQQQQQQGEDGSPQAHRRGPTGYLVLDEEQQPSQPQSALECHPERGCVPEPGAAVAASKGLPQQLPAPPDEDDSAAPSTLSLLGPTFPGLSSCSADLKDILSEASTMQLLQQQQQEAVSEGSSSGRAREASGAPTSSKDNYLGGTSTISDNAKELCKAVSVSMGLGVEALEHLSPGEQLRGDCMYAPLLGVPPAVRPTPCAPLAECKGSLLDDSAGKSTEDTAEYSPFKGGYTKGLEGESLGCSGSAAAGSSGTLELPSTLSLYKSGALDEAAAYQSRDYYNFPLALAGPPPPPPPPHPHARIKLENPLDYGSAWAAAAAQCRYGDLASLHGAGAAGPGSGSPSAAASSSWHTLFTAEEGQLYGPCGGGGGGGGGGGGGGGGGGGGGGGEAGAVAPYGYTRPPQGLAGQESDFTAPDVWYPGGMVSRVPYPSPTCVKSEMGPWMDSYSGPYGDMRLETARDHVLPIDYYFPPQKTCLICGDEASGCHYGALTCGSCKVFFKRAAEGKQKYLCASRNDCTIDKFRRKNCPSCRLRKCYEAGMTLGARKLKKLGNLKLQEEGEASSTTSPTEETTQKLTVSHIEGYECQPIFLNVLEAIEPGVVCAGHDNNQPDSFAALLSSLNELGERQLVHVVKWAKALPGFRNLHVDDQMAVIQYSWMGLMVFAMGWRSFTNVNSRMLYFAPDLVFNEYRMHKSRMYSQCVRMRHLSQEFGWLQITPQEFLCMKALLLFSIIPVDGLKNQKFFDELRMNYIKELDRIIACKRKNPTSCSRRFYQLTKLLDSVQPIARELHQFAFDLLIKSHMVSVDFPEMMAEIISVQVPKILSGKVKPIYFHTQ", "experiment": "PSA(6.1 kb)-luciferase reporter assay in LNCaP cells (androgen-induced AR transcriptional activity)", "format": "cell-based", "description": "The PSA-luciferase (6.1 kb) reporter contains functional AREs to which AR binds in response to androgen to induce luciferase activity. LNCaP cells were transfected with the PSA(6.1 kb)-luciferase reporter for 24 h, and then treated with indicated concentration of 8d (also referred as EPI-iodide or iodinated EPI) with synthetic androgen, R1881 (1 nM) for 24 h. After 24 h of incubation with R1881, the cells were harvested, and relative luciferase activities were determined (FIG. 1A). To determine the IC50, treatments were normalized to the predicted maximal activity induction (in the absence of test compounds, vehicle only) (FIG. 1B).\nTo measure effect on AR, after the LNCaP cells were transfected with the PSA(6.1 kb)-luciferase reporter for 24 h, they were then treated with DMSO, 5 μM MDV3100, 25 μM Z (also referred to as EPI-002 or EPI), or 1.9 μM 8d with or without 1 nM R1881 for 24 h (FIG. 2A).\nLNCaP cells were transiently transfected with PSA (6.1 kb)-luciferase for 24 h prior to pre-treatment with compounds of the invention (e.g., compounds 9d, 10d, 11d) ranging in concentration from 62.5 ng/ml to 1.5 ug/ml for 1 hour before the addition of vehicle, or synthetic androgen, R1881 (1 nM) to induce luciferase production. After 24 h of incubation with R1881, the cells were harvested, and relative luciferase activities were determined. To determine the IC50, treatments were normalized to the predicted maximal activity induction (in the absence of test compounds, vehicle only) (FIG. 1B)."}, "recombinant LBD of PR": {"target": "T4, recombinant LBD of PR (Homo sapiens, UniProt P06401)", "T4 sequence (P06401 679-913 limits assumed)": "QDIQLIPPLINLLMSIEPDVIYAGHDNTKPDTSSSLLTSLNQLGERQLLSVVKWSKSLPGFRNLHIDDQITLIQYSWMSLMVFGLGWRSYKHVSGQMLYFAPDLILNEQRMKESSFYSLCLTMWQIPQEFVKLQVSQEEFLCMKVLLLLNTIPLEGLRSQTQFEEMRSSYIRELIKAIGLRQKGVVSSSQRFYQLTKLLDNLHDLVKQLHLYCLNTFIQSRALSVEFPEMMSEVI", "experiment": "Competitive ligand-binding assay (fluorescent polarization), recombinant PR LBD", "conditions": "1 nM fluorescently labeled ligand, 5 h incubation, serial dilution", "description": "as §1"}}}
{"compound": "CC(C)(c1ccc(OC[C@H](O)CO)cc1)c1ccc(OC[C@H](O)CCl)c(I)c1", "note": "[Compound 8d, (R)-3-(4-(2-(4-((S)-3-chloro-2-hydroxypropoxy)-3-iodophenyl)propan-2-yl)phenoxy)propane-1,2-diol]", "values": [{"measurement": "binding to LBD of ER (displacement of fluorescently labeled ligand)", "setting": "[1]", "value": "does not bind"}, {"measurement": "binding to LBD of AR (displacement of fluorescently labeled ligand)", "setting": "recombinant LBD of AR", "value": "does not bind"}, {"measurement": "androgen-induced PSA luciferase activity", "setting": "AR; 1.9 μM 8d, 1 nM R1881, 24 h, LNCaP cells (FIG. 2A)", "value": "strongly inhibited"}, {"measurement": "IC50", "setting": "AR; LNCaP cells, PSA(6.1 kb)-luciferase, R1881 1 nM 24 h, representative experiment, read-out: IC50 for inhibition of AR transcriptional activity", "value": "1170 ± 220", "unit": "nM"}, {"measurement": "binding to LBD of PR (displacement of fluorescently labeled ligand)", "setting": "recombinant LBD of PR", "value": "does not bind"}]}
